Results reported in US6340694B1, “Diarylbenzopyran derivatives as cyclooxygenase-2 inhibitors” (Pacific Corporation, priority 1998, dated 2002).

Assays:
COX-2 = molecular target: T1, COX-2 (Mus musculus, UniProt Q05769); assay: Evaluation of COX-2's inhibition efficacy (PGE2 radioimmuno assay, LPS-induced, aspirin-pretreated peritoneal macrophages); format: cell-based, C57BL/6 mouse
T1 construct: endogenous in cells; host or cells: peritoneal macrophages of C57BL/6 mouse, aspirin-pretreated, LPS-induced
T1 sequence (Q05769 18-604): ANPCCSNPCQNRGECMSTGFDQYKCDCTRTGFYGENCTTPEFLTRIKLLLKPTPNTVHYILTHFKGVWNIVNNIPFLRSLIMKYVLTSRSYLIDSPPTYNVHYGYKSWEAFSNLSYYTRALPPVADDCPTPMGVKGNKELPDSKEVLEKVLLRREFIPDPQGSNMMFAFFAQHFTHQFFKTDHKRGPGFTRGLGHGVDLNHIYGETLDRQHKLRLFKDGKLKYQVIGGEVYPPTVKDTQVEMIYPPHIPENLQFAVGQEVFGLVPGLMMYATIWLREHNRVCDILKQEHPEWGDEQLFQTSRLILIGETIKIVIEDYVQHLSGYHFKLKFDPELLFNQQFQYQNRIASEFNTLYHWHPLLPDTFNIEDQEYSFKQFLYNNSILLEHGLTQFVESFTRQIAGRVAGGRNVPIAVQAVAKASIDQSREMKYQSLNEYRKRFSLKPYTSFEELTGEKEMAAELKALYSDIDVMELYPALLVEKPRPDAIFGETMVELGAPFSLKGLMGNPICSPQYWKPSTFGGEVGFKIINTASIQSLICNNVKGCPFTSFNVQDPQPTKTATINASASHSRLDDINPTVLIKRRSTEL
Experimental: Regarding the compounds in the above Examples and indomethacin, the inhibition efficacy of COX-2 and COX-1 are being measured by the following two methods. […] Evaluation of COX-2's Inhibition Efficacy (J. Pharmacol. Exp. […] After cleaning C57BL/6 mouse's abdomen by 70% EtOH, the skin of mouse's abdomen was eliminated cautiously not to harm peritomeum and 5 ml of cold PBS was poured into the abdominal cavity and in certain times later macrophage-bleeding abdominal-liquid was collected by syringe. […] After putting 1 ml cell suspension having cell number of 1×10^6 cells/mu into each 24-well microtiter plates, macrophages were adhered to the bottom of plate by culturing in the condition of 5% CO2/95% O2, at a temperature of 37° C. for 2 hours. Other cells not being adhered to were eliminated by washing two times with PBS. The purity of macrophages obtained through this process was identified by differential counting. […] After inducing COX-2 by LPS, the cell culture medium was eliminated and macrophages was washed two times with PBS. And 1 ml of RRPI-1640 badge was added to each well again and after treating them with sample with appropriate concentration, they were cultured at a temperature of 37i É for 10 minutes. And then treated them with arachidonic acid to make their final concentration as 10 μM and cultured them additional 10 minutes, all the supernatant liquid of reaction was obtained. The amount of PGE2 produced in the supernatant liquid of reaction was determined by the PGE2 radioimmuno assay.

COX-1 = molecular target: T2, COX-1 (Mus musculus, UniProt P22437); assay: Evaluation of COX-1's inhibition efficacy (macrophages without aspirin and LPS pre-treatment); format: cell-based, C57BL/6 mouse
T2 construct: there is no pre-treatment of aspirin and LPS in the adhesion of macrophage; endogenous in cells; host or cells: peritoneal macrophages of C57BL/6 mouse, without aspirin and LPS pre-treatment
T2 sequence (P22437 27-602): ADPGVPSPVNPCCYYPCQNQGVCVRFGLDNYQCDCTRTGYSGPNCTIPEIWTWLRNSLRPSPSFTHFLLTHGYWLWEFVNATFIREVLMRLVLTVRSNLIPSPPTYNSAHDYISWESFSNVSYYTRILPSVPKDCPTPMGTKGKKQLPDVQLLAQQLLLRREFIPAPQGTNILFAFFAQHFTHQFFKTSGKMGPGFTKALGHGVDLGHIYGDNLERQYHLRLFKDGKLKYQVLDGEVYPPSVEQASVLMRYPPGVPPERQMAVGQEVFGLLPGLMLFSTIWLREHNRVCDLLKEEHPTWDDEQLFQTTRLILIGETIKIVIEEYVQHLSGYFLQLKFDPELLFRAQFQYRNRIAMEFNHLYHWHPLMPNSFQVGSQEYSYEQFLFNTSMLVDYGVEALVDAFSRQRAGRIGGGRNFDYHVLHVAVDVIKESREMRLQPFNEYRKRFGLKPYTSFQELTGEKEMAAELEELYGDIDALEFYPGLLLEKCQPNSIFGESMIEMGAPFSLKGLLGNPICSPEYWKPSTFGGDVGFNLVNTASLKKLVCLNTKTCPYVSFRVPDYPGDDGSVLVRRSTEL
Experimental: Regarding the compounds in the above Examples and indomethacin, the inhibition efficacy of COX-2 and COX-1 are being measured by the following two methods.
After cleaning C57BL/6 mouse's abdomen by 70% EtOH, the skin of mouse's abdomen was eliminated cautiously not to harm peritomeum and 5 ml of cold PBS was poured into the abdominal cavity and in certain times later macrophage-bleeding abdominal-liquid was collected by syringe. By adding RPMI-1640 badge containing penicillin(100 unit/mt) and streptomycin([…]) to cell pellet obtained by centrifugation of collected liquid about 5 minutes in 1500 rpm, it was disperesed and also COX-1 existing in the cell was inactivated by treating with 500 μM aspirin. After putting 1 ml cell suspension having cell number of 1×10^6 cells/mu into each 24-well microtiter plates, macrophages were adhered to the bottom of plate by culturing in the condition of 5% CO2/95% O2, at a temperature of 37° C. for 2 hours. Other cells not being adhered to were eliminated by washing two times with PBS. The purity of macrophages obtained through this process was identified by differential counting. After adding RPMI-1640 badge(normally 5×10^5 cell/ml) containing 3% right fetal blood serum to macrophage and treating it with LPS(lipopolysaccharide) to make final concentration as 10 μg/ml, it was cultured in the condition of 5% CO2, at a temperature of 37° C. for 16 hours. After inducing COX-2 by LPS, the cell culture medium was eliminated and macrophages was washed two times with PBS. And 1 ml of RRPI-1640 badge was added to each well again and after treating them with sample with appropriate concentration, they were cultured at a temperature of 37i É for 10 minutes. And then treated them with arachidonic acid to make their final concentration as 10 μM and cultured them additional 10 minutes, all the supernatant liquid of reaction was obtained. The amount of PGE2 produced in the supernatant liquid of reaction was determined by the PGE2 radioimmuno assay. The 100% COX-2's activation is referenced by the difference of the amount of PGE2 produced in the supernatant liquid of reaction between with 10 μM arachidonic acid treatment and without 10 μM arachidonic acid treatment.
2. Evaluation of COX-1's Inhibition Efficacy
Following the same procedure as the above evaluation of COX-2's inhibition efficacy, but there is no pre-treatment of aspirin and LPS in the adhesion of macrophage.

Row | inhibition at 0.1 µg/mL (COX-2; 0.1 μg/ml) | inhibition at 1 µg/mL (COX-2; 1 μg/ml) | inhibition at 10 µg/mL (COX-2; 10 μg/ml) | inhibition at 10 µg/mL (COX-1; 10 μg/ml) | inhibition at 1 µg/mL (COX-1; 1 μg/ml) | SMILES | further results
1 | 18% | 32% | 71% | – | – | CS(=O)(=O)c1ccc(-c2oc3ccccc3c(=O)c2-c2cccc(Cl)c2Cl)cc1 [Example 14, 3-(2,3-Dichlorophenyl)-2-(4-(methylsulfonyl)phenyl)-4H-1-benzopyran-4-one] | –
2 | 14% | 82% | 90% | – | – | Cc1cccc(-c2c(-c3ccc(S(C)(=O)=O)cc3)oc3ccccc3c2=O)c1 [Example 22, 3-(3-Methylphenyl)-2-(4-(methylsulfonyl)phenyl)-4H-1-benzopyran-4-one] | –
3 | 23% | 84% | 97% | – | – | Cc1ccccc1-c1c(-c2ccc(S(C)(=O)=O)cc2)oc2ccccc2c1=O [Example 23, 3-(2-Methylphenyl)-2-(4-(methylsulfonyl)phenyl)-4H-1-benzopyran-4-one] | –
4 | – | 27% | 44% | 17% | – | CS(=O)(=O)c1ccc(-c2oc3ccccc3c(=O)c2-c2ccccn2)cc1 [Example 33, 2-(4-(Methylsulfonyl)phenyl)-3-(2-pyridinyl)-4H-1-benzopyran-4-one] | –
5 | 39% | 100% | – | – | – | NS(=O)(=O)c1ccc(-c2oc3cc(F)ccc3c(=O)c2-c2ccc(F)cc2)cc1 [Example 59, 2-(4-(Aminosulfonyl)phenyl)-7-fluoro-3-(4-fluorophenyl)-4H-1-benzopyran-4-one] | –
6 | 43% | 100% | – | – | – | NS(=O)(=O)c1ccc(-c2oc3cc(F)ccc3c(=O)c2-c2ccccc2F)cc1 [Example 60, 2-(4-(Aminosulfonyl)phenyl)-7-fluoro-3-(2-fluorophenyl)-4H-1-benzopyran-4-one] | –
7 | 69% | 97% | – | 38% | 22% | NS(=O)(=O)c1ccc(-c2oc3cc(F)ccc3c(=O)c2-c2cccc(F)c2)cc1 [Example 61, 2-(4-(Aminosulfonyl)phenyl)-7-fluoro-3-(3-fluorophenyl)-4H-1-benzopyran-4-one] | –
8 | – | 83% | 90% | 80% | 40% | NS(=O)(=O)c1ccc(-c2oc3c(Cl)ccc(O)c3c(=O)c2-c2ccc(F)cc2)cc1 [Example 66, 2-(4-(Aminosulfonyl)phenyl)-8-chloro-3-(4-fluorophenyl)-5-hydroxy-4H-1-benzopyran-4-one] | –

More lines, now with the values behind:

Row | SMILES | inhibition at 0.1 µg/mL (COX-2; 0.1 μg/ml) | inhibition at 1 µg/mL (COX-2; 1 μg/ml) | inhibition at 10 µg/mL (COX-2; 10 μg/ml) | inhibition at 10 µg/mL (COX-1; 10 μg/ml) | inhibition at 1 µg/mL (COX-1; 1 μg/ml) | further results
9 | CS(=O)(=O)c1ccc(-c2oc3ccccc3c(=O)c2-c2cccc(Cl)c2)cc1 [Example 24, 3-(3-Chlorophenyl)-2-(4-(methylsulfonyl)phenyl)-4H-1-benzopyran-4-one] | 22% | 86% | 95% | – | – | –
10 | NS(=O)(=O)c1ccc(-c2oc3ccc(F)cc3c(=O)c2-c2ccccc2)cc1 [Example 47, 2-(4-(Aminosulfonyl)phenyl)-6-fluoro-3-phenyl-4H-1-benzopyran-4-one] | 23% | 86% | – | – | – | –
11 | NS(=O)(=O)c1ccc(-c2oc3ccccc3c(=O)c2-c2ccc3c(c2)OCO3)cc1 [Example 54, 2-(4-(Aminosulfonyl)phenyl)-3-((3,4-methylenedioxy)phenyl)-4H-1-benzopyran-4-one] | – | – | – | – | – | Inhibition (%) COX-2 (COX-2; 0.1 μg/ml): 20%; Inhibition (%) COX-2 (COX-2; 1 μg/ml): 84%; Inhibition (%) COX-1 (COX-1; 10 μg/ml): 75%
12 | CSc1ccc(-c2c(-c3ccc(S(N)(=O)=O)cc3)oc3ccccc3c2=O)cc1 [Example 56, 2-(4-(Aminosulfonyl)phenyl)-3-((4-methylthio)phenyl)-4H-1-benzopyran-4-one] | – | – | – | – | – | Inhibition (%) COX-2 (COX-2; 0.1 μg/ml): 53%; Inhibition (%) COX-2 (COX-2; 1 μg/ml): 84%; Inhibition (%) COX-2 (COX-2; 10 μg/ml): 90%; Inhibition (%) COX-1 (COX-1; 1 μg/ml): 77%; Inhibition (%) COX-1 (COX-1; 10 μg/ml): 90%
13 | NS(=O)(=O)c1ccc(-c2oc3cc(F)ccc3c(=O)c2-c2ccc(Cl)c(Cl)c2)cc1 [Example 62, 2-(4-(Aminosulfonyl)phenyl)-7-fluoro-3-(3,4-dichlorophenyl)-4H-1-benzopyran-4-one] | 89% | 100% | – | 76% | 54% | –
14 | COc1ccc2c(=O)c(-c3ccc(F)cc3)c(-c3ccc(S(N)(=O)=O)cc3)oc2c1 [Example 64, 2-(4-(Aminosulfonyl)phenyl)-7-methoxy-3-(4-fluorophenyl)-4H-1-benzopyran-4-one] | < 5% | 52% | 47% | – | – | –
15 | COc1ccc(Cl)c2oc(-c3ccc(S(N)(=O)=O)cc3)c(-c3ccc(F)cc3)c(=O)c12 [Example 65, 2-(4-(Aminosulfonyl)phenyl)-8-chloro-3-(4-fluorophenyl)-5-methoxy-4H-1-benzopyran-4-one] | – | 67% | 93% | 73% | 24% | –
16 | NS(=O)(=O)c1ccc(-c2oc3ccc(F)cc3c(=S)c2-c2ccc(F)cc2)cc1 [Example 68, 2-(4-(Aminosulfonyl)phenyl)-6-fluoro-3-(4-fluorophenyl)-4H-1-benzopyran-4-thione] | 89% | 100% | – | 83% | 58% | –
17 | NS(=O)(=O)c1ccc(-c2oc3ccccc3c(=S)c2-c2ccc(F)cc2)cc1 [Example 69, 2-(4-(Aminosulfonyl)phenyl)-3-(4-fluorophenyl)-4H-1-benzopyran-4-thione] | 42% | 98% | 100% | 90% | 68% | –
